Reference: paper PMC7353089, “The Hepatotoxicity of Alantolactone and Germacrone: Their Influence on Cholesterol and Lipid Metabolism in Differentiated HepaRG Cells” (Nutrients, 2020)
Entries after “also recorded” stand apart in the source; their conditions may differ. Like-named read-outs stand apart in the source and are kept apart here.

Legend:
HepG2 = conditions: HepG2, 24 h, read-out: Previously Reported IC50 Values (24 h), cited from earlier work
dHepaRG cells [1] = assay: Lactate dehydrogenase (LDH) leakage; format: cell-based, human; conditions: dHepaRG cell viability, read-out: IC50 ± SD, LDH
Method: Cryopreserved HepaRG cells were obtained from Biopredic International (Rennes, France). Undifferentiated cells were seeded according to the supplier protocols in 96-well plates for the viability assays, and in 6-well plates for the mRNA and western blot measurements. The cells were cultured for two weeks in Williams E Medium with GlutaMAX™ (Invitrogen, Paisley, UK) supplemented with 10% fetal bovine serum, 2 mM glutamine, 100 IU/mL penicillin, 100 μg/mL streptomycin, 5 μg/mL insulin, and 50 μM hydrocortisone hemisuccinate. The cells were afterwards cultured for another 2-week period in the same medium supplemented with 1.7% DMSO. The medium was replaced every 2–3 days.
Lactate dehydrogenase (LDH) leakage was measured using the Invitrogen™ CyQUANT™ LDH Cytotoxicity Assay Kit according to the manufacturer guidelines using 96-well plates. After 24 and 72-h exposure, the culture medium was collected and diluted ten times by distilled water. Fifty µL of reaction mixture was added to each sample well and mixed. After 30 min of incubation at room temperature, 50 µL of stop solution was added to each well. To determine LDH activity, 680-nm absorbance value (background) was subtracted from the 490-nm absorbance before calculation of % cytotoxicity. Cell lysate was set as 100% of the LDH leakage.

p-STAT3(Y705) = assay: Western blot protein level in dHepaRG cells; format: cell-based, human; conditions: for phosphorylated p-STAT3(Y705) protein amount: 12-h exposure
Method: (§1) All the treatments were performed in triplicates. Protein concentration was measured using the bicinchoninic acid (BCA) protein assay (Sigma Aldrich, Prague, Czech Republic) according to the manufacturer’s instructions. The proteins were loaded onto a 10% sodium dodecyl sulfate (SDS; w/v)–polyacrylamide gel (with 4% stacking gel) and separated by SDS-PAGE electrophoresis. The proteins were transferred onto a nitrocellulose membrane using wet blot (100 V, 90 min). The membrane blocking was performed in a 5% non-fat dry milk/TRIS-buffered saline-Tween-20 (TBS-T) solution at room temperature for 2 h. Incubation with primary antibodies was accomplished overnight at 10 °C. β-actin was used as housekeeping protein (the list of primary antibodies in Table S2). Afterwards, the membrane was washed with 0.05% TBS-T solution for 6 × 5 min, incubated with respective secondary antibodies conjugated with horseradish peroxidase (bovine anti-rabbit (sc2370, Santa Cruz Biotechnology, Santa Cruz, CA, USA) at room temperature for 1.5 h, and rinsed with TBS-T solution for 6 × 5 min. Visualization of protein bands was carried out using a chemiluminescence kit (GE Healthcare, Buckinghamshire, UK).

SREBP-2 (F) = assay: Western blot protein level in dHepaRG cells; format: cell-based, human; conditions: single exposure
Method: as §1

ICAM-1 = assay: Western blot protein level in dHepaRG cells; format: cell-based, human
Method: as §1

HMGCR = assay: Western blot protein level in dHepaRG cells; format: cell-based, human
Method: as §1

RIP1 = assay: Western blot protein level in dHepaRG cells; format: cell-based, human
Method: as §1

STAT3 = assay: Western blot protein level in dHepaRG cells; format: cell-based, human; conditions: highest tested concentration (equal to IC50)
Method: as §1

NF-κB = assay: Western blot protein level in dHepaRG cells; format: cell-based, human
Method: as §1

TFRC mRNA = assay: RT-qPCR mRNA expression in dHepaRG cells; format: cell-based, human; conditions: single exposure, also at other than toxic concentrations
Method: (§2) Three concentrations were selected for each compound (non-toxic, non-toxic/slightly toxic and toxic). […] The expression changes of genes and proteins related to cholesterol metabolism were measured in both single and multiple exposure experiments.
(§3) All treatments were performed in triplicates and every experiment was performed three times. The cells were washed twice with ice cold phosphate-buffered saline (PBS), scrapped and stored at −80 °C until use. Total RNA from cells was isolated using TriReagent according to the manufacturer’s instructions (Biotech, Prague, Czech Republic). The purified RNA was dissolved in 40 µL of diethyl pyrocarbonate (DEPC)-treated water (0.01% DEPC in HPLC water, autoclaved) and stored at −80 °C. The measurement of absorbance at 260 and 280 nm using the NanoDrop ND-1000 UV–VIS Spectrophotometer (Thermo Fisher Scientific, Pardubice, Czech Republic) was used to determine RNA yields and purity. […] Fluorescence data were recorded at the end of each amplification step. Relative expression levels of the target genes were calculated as fold changes in triplicates for each group using the 2^−ΔΔCt method [28] by normalization to the geometric mean of the Ct values of Sdha and Ywhaz, which were used as reference genes.

FASN mRNA = assay: RT-qPCR mRNA expression in dHepaRG cells; format: cell-based, human; conditions: single exposure, 6, 12 and 24 h
Method: (§4) Three concentrations were selected for each compound (non-toxic, non-toxic/slightly toxic and toxic). The cholesterol level of the dHepaRG cells was measured after a multiple exposure of the highest non-toxic concentrations of tested compounds. […] The expression changes of genes and proteins related to cholesterol metabolism were measured in both single and multiple exposure experiments.
as §3

G6PC mRNA = assay: RT-qPCR mRNA expression in dHepaRG cells; format: cell-based, human; conditions: single exposure, also at other than toxic concentrations
Method: as §2, §3

dHepaRG cells [2] = assay: ROS production (H2DCFDA probe); format: cell-based, human; conditions: for lowest measured concentration leading to oxidative stress: ROS production; for ROS production: various concentrations, 1, 6, 12 and 24 h, H2-DCFDA probe
Method: The production of reactive oxygen species (ROS) was measured using 2′,7′-dichlorofluorescin diacetate probe (H2DCFDA). The cells were preincubated with 10 µM H2DCFDA for 30 min in the dark. Afterwards, the cells were washed with PBS and sesquiterpenes were added to a Hank’s Balanced Salt Solution (HBSS) buffer. Fluorescence was measured after 1, 6, 12, and 24 h with excitation and emission wavelengths of 490 nm and 530 nm, respectively, using the Tecan Infinite M200. Hydrogen peroxide (300 µM) served as a positive control.

MDA-MB-231 = conditions: MDA-MB-231, 24 h; read-out: Previously Reported IC50 Values (24 h); cited from earlier work
MCF-7 = conditions: read-out: Previously Reported IC50 Values (24 h), cited from earlier work
GPAM mRNA = assay: RT-qPCR mRNA expression in dHepaRG cells; format: cell-based, human; conditions: single exposure, 6, 12 and 24 h
Method: (§5) Three concentrations were selected for each compound (non-toxic, non-toxic/slightly toxic and toxic).
(§6) All treatments were performed in triplicates and every experiment was performed three times. The cells were washed twice with ice cold phosphate-buffered saline (PBS), scrapped and stored at −80 °C until use. Total RNA from cells was isolated using TriReagent according to the manufacturer’s instructions (Biotech, Prague, Czech Republic). The purified RNA was dissolved in 40 µL of diethyl pyrocarbonate (DEPC)-treated water (0.01% DEPC in HPLC water, autoclaved) and stored at −80 °C. The measurement of absorbance at 260 and 280 nm using the NanoDrop ND-1000 UV–VIS Spectrophotometer (Thermo Fisher Scientific, Pardubice, Czech Republic) was used to determine RNA yields and purity. Subsequently, the RNA (4 µg) was treated with 2 U of DNase I (New England Biolabs, Ipswich, MA, USA) in a final volume of 30 µL for 25 min at 37 °C, 1.5 µL of 0.1 M ethylenediaminetetraacetic acid was added and the DNAse was inactivated by heat (5 min at 75 °C). […] Fluorescence data were recorded at the end of each amplification step. Relative expression levels of the target genes were calculated as fold changes in triplicates for each group using the 2^−ΔΔCt method [28] by normalization to the geometric mean of the Ct values of Sdha and Ywhaz, which were used as reference genes.

PLIN2 mRNA = assay: RT-qPCR mRNA expression in dHepaRG cells; format: cell-based, human; conditions: single exposure, the highest concentrations
Method: as §4, §3

PLIN4 mRNA = assay: RT-qPCR mRNA expression in dHepaRG cells; format: cell-based, human; conditions: single exposure, 6, 12 and 24 h
Method: as §4, §3

SCD mRNA = assay: RT-qPCR mRNA expression in dHepaRG cells; format: cell-based, human; conditions: single exposure, 6, 12 and 24 h
Method: as §5, §6

ACACB mRNA = assay: RT-qPCR mRNA expression in dHepaRG cells; format: cell-based, human; conditions: single exposure, 6, 12 and 24 h
Method: as §5, §6

U87 = conditions: U87, 24 h, read-out: Previously Reported IC50 Values (24 h), cited from earlier work
CYP19A1 mRNA = assay: RT-qPCR mRNA expression in dHepaRG cells; format: cell-based, human
Method: as §4
All treatments were performed in triplicates and every experiment was performed three times. The cells were washed twice with ice cold phosphate-buffered saline (PBS), scrapped and stored at −80 °C until use. Total RNA from cells was isolated using TriReagent according to the manufacturer’s instructions (Biotech, Prague, Czech Republic). The purified RNA was dissolved in 40 µL of diethyl pyrocarbonate (DEPC)-treated water (0.01% DEPC in HPLC water, autoclaved) and stored at −80 °C. The measurement of absorbance at 260 and 280 nm using the NanoDrop ND-1000 UV–VIS Spectrophotometer (Thermo Fisher Scientific, Pardubice, Czech Republic) was used to determine RNA yields and purity. Subsequently, the RNA (4 µg) was treated with 2 U of DNase I (New England Biolabs, Ipswich, MA, USA) in a final volume of 30 µL for 25 min at 37 °C, 1.5 µL of 0.1 M ethylenediaminetetraacetic acid was added and the DNAse was inactivated by heat (5 min at 75 °C). The solution was diluted to a concentration of 0.1 µg/µL. The DNAse treated RNA was stored at −80 °C until further analyses. The first strand cDNA was synthesized from 800 ng of total RNA and 1 µL of 50 µM random hexamers (Generi Biotech, Hradec Kralove, Czech Republic) using ProtoScript II reverse transcriptase (New England Biolabs, Ipswich, MA, USA). After the initial heat denaturation of total RNA (65 °C for 5 min), 4 µL of 5× ProtoScript II RT Reaction Buffer, 2 µL of 10× dithiothreitol (DTT), 2 µL of deoxynucleotide (dNTP) Mix 5 mM, 3.5 µL of H2O, and 0.5 µL of ProtoScript II 200 U/µL were added and mixed by pipetting. The reactions (20 µL) were incubated for 10 min at 25 °C, for 50 min at 42 °C, and for 5 min at 80 °C. The obtained cDNAs were diluted 1:6 by DEPC water. The qPCR analyses were carried out using QuantStudio 6 Flex (Applied Biosystems, Foster City, CA, USA) with SYBR green I (Xceed qPCR SG Mix, Institute of Applied Biotechnologies, Prague, Czech Republic) detection according to the manufacturer’s protocol. […] Fluorescence data were recorded at the end of each amplification step. Relative expression levels of the target genes were calculated as fold changes in triplicates for each group using the 2^−ΔΔCt method [28] by normalization to the geometric mean of the Ct values of Sdha and Ywhaz, which were used as reference genes.

[3] = the higher concentrations after 12 and 24-h exposure

## C=C1C(=O)O[C@@H]2C[C@@]3(C)CCC[C@H](C)C3=C[C@H]12 [ATL, alantolactone]
HepG2; ref 9
  IC50: 33 µM
HepG2; ref 35
  IC50: 7 µM
HepG2; ref 36
  IC50: 30 µM
dHepaRG cells [1]; 24 h single exposure
  IC50: 61.1 ± 1.8 µM
dHepaRG cells [1]; 72 h single exposure
  IC50: 57.8 ± 2 µM
p-STAT3(Y705); all concentrations tested
  phosphorylated p-STAT3(Y705) protein amount: decreased; also recorded: inhibition
SREBP-2 (F); the highest concentration
  functional SREBP-2 (F) protein level: significantly decreased
ICAM-1; all concentrations after 12-h exposure
  ICAM-1 protein amount: significantly decreased
HMGCR; single exposure, after 12 and 24 h
  HMGCR protein amount: decrease
HMGCR; single exposure, the higher concentrations after 12 and 24-h exposure
  HMGCR protein level: decrease
RIP1; 12-h exposure
  RIP1 protein expression: decreased level
RIP1; 24-h exposure, highest concentration
  RIP1 protein expression: decreased
STAT3
  total STAT3 protein level: decrease
NF-κB; 24-h exposure, the highest concentration
  NF-κB protein level: significant decrease
TFRC mRNA
  TFRC mRNA expression: inhibited
FASN mRNA
  FASN mRNA level: significantly decreased
G6PC mRNA
  G6PC mRNA expression: dysregulated
dHepaRG cells [2]
  lowest measured concentration leading to oxidative stress: 20 µM
  ROS production: significant time- and concentration-dependent enhancement of ROS production
MDA-MB-231
  IC50: > 15 µM
MCF-7; MCF-7, 24 h
  IC50: 36 µM
GPAM mRNA
  GPAM mRNA level: significantly decreased
PLIN2 mRNA
  PLIN2 mRNA: induced
PLIN4 mRNA
  PLIN4 mRNA level: decreased
SCD mRNA
  SCD mRNA level: significantly decreased
ACACB mRNA
  ACACB mRNA level: significantly decreased
U87; ref 10
  IC50: 20 µM
U87; ref 34
  IC50: 33 µM
CYP19A1 mRNA; 20 and 40 µM, all the studied intervals (6, 12, 24 h)
  CYP19A1 mRNA level: induced

## CC(C)=C1C/C=C(\C)CC/C=C(\C)CC1=O [GER, germacrone]
HepG2; ref 7
  IC50: 170 µM
HepG2; ref 12
  IC50: 160 µM
HepG2; ref 13
  IC50: > 240 µM
dHepaRG cells [1]; 24 h single exposure
  IC50: 244 ± 15.5 µM
dHepaRG cells [1]; 72 h single exposure
  IC50: 234 ± 13.4 µM
p-STAT3(Y705); both higher concentrations
  phosphorylated p-STAT3(Y705) protein amount: decreased
p-STAT3(Y705); [3]
  p-STAT3 (Y705) phosphorylation: inhibition
SREBP-2 (F); 12-h exposure
  functional SREBP-2 (F) protein level: increase
SREBP-2 (F); 24-h exposure
  functional SREBP-2 (F) protein level: no change in protein level
ICAM-1; [3]
  ICAM-1 protein amount: significantly decreased
HMGCR; multiple exposure: four applications every 24 h, analyzed 12 h after the last, 30 μM ATL, 100 μM GER, 20 μM LOV
  HMGCR protein level: slight decrease
HMGCR; single exposure, only after 12-h exposure
  HMGCR protein amount: decrease
HMGCR; single exposure, the highest concentration after 12-h exposure
  HMGCR protein level: decrease
RIP1; 12-h exposure
  RIP1 protein expression: decreased level
STAT3
  total STAT3 protein level: decrease
NF-κB; 12-h exposure
  NF-κB protein level: decreased level
TFRC mRNA
  TFRC mRNA expression: inhibited
FASN mRNA
  FASN mRNA level: significantly decreased
G6PC mRNA
  G6PC mRNA expression: dysregulated
dHepaRG cells [2]
  lowest measured concentration leading to oxidative stress: 100 µM
  ROS production: significant time- and concentration-dependent enhancement of ROS production
MDA-MB-231
  IC50: 244 µM
MCF-7; MCF7, 24 h, ref 11
  IC50: 195 µM
MCF-7; MCF7, 24 h, ref 37
  IC50: > 200 µM
GPAM mRNA
  GPAM mRNA level: significantly decreased
PLIN2 mRNA
  PLIN2 mRNA: induced
PLIN4 mRNA
  PLIN4 mRNA level: no significant change
SCD mRNA
  SCD mRNA level: significantly decreased
ACACB mRNA
  ACACB mRNA level: significantly decreased
U87; ref 36
  IC50: 175 µM
CYP19A1 mRNA; 100 µM, 24-h exposure
  CYP19A1 mRNA level: induced the level by nearly two-fold; also recorded: significantly induced
CYP19A1 mRNA; both higher concentrations, 6- and 12-hour exposure
  CYP19A1 mRNA level: decreased
